Patent US20220245798A1, “TISSUE STEM CELL COUNTING […] USES THEREOF” (Asymmetrex LLC, priority 2021, published 2022)

System: HSCs in CD34+-selected normal human bone marrow cells
Assay: PSCK-RIFS tissue stem cell counting and cell kinetics determination, serial culture of BM-CD34+ cells with stem cell-active agents
Assay type: cell-based
Details: for Committed Progenitor Cells CC Time / Stem Cells Asym CC Time / Stem Cells SSR Rate, RS / Stem Cells Sym CC Time / Stem Cells Initial Fraction: BM-CD34+ serial culture, agent supplemented at all times; for Committed Progenitor Cells CC Time / Stem Cells Asym CC Time / Stem Cells SSR Rate, RS / Stem Cells Sym CC Time: mean of n=5; for Stem Cells Initial Fraction: mean of n=5 PSCK-RIFS determinations
From the text: Strain WI-38 pre-senescent human lung cells were purchased from the American Type Culture Collection (Manassas, Va., USA; ATCC #CCL-75; passage 15). Expanded human liver stem cell strain SACK-XS 12(3) was purchased from Kerafast (Boston, Mass., USA; #EJS002). CD34+-selected normal human bone marrow cells were purchased from the ATCC (#PCS-800-012). CD34+-selected human umbilical cord blood cells were purchased from STEMCELL Technologies, Inc. (Cat#70008; Cambridge, Mass.).
Expanded human liver stem cell strain SACK-XS 12(3) cells were cultured in the supplier's recommended culture medium without inclusion of xanthosine. CD34+-selected normal human bone marrow cells were cultured in StemSpan™ SFEM II medium (STEMCELL Technologies, Inc., Cambridge, Mass., USA; #09655) supplemented with StemSpan™ CD34+ Expansion Supplement (STEMCELL Technologies, Inc., #02691). SACK-XS 12(3) serial cultures were initiated in 6-well plates with 325,000 viable cells. CD34+ cell serial cultures were initiated as 24-well suspension cultures with 65,000 viable cells. For both cell types, ⅓ of total cells were transferred to a new culture well every 96±4 hour interval. Tested agents were supplemented at all times during the culture period.
Based on the determined stem cell symmetric self-renewal frequency (RS), in the early studies presented herein a correction was applied to account for this effect. The correction is determined by the following Equation 1:
NSo corrected=NS1st interval/(RSe^kt+RA−RDS) (Equation 1)
In Equation 1, NS1st interval=NS peak value determined from the initial interval of PSCK; t=the time to the first interval NS peak in the respective simulation; k=ln 2/GTS, the mean generation time for symmetrically self-renewing stem cells; RS, RA, and RDS are mean cell kinetics factors determined by the originating PSCK-RIFS analysis (See EXAMPLE 4). The mean of 10 independent PSCK NS simulations was used for correction. Equation 1 was applied to determine the initial stem cell fraction whenever a significant RS value was found.
The simulation confidence level was estimated from the root mean squared error of the comparison of simulated cumulative population doubling (CPD) data to experimental CPD data. Student's t-test (2-tailed) was used to calculate p-values for confidence for cell kinetics factors determined by the PSCK-RIFS software (See also EXAMPLE 4) with respect to 0.0 and their 95% confidence intervals. Student's t-test (2-tailed) was also used to calculate p-values for confidence for differences in the value of cell kinetics factors derived under different culture conditions.
FIGS. 1 and 11 outline the application of the PSCK-RIFS software. A tissue cell preparation of interest is first counted (including viable cell determination; NC in Table 5) and used to initiate serial cultures, typically in triplicate.
At an experimenter defined interval (SPLI in Table 5), cultures are counted—including viable cell count—and a constant fraction of the cells or number of the cells is transferred to a new culture dish of the same type (FIG. 11). The PSCK software is designed to be versatile for accommodating different formats for the culture time period and/or the number of cells transferred. The total cell count data are transformed into plots of cumulative population doublings (CPD); and the viable cell fraction is used to estimate the dead cell fractions for transient cells (RDT in Table 5) and terminal cells (RDTM in Table 5), which are similarly very abundant during most of the culture period.
FIG. 1 depicts the various inputs that are used by the PSCK software to calculate CPD curve simulations for the period defined by the experimental CPD data. Using the cellular model illustrated in FIG. 1, the software inputs measured values (“m” superscripted in FIG. 1) and discovered factors (“d” superscripted in FIG. 1) obtained from the RIFS software. An important aspect of the PSCK-RIFS method is that there is no underlying mathematical algorithm. […]

O=c1[nH]c(=O)c2ncn([C@@H]3O[C@H](CO)[C@@H](O)[C@H]3O)c2[nH]1 [Xanthosine, xanthosine]
change in stem cell fraction of supplemented cultures (BM-CD34+ cultures): increases | Committed Progenitor Cells CC Time: 8.2 h (NS) | Stem Cells Asym CC Time: 6.6 h (NS) | Stem Cells SSR Rate, RS: 3.2 × 10^−3 (0.037) | Stem Cells Sym CC Time: 9.4 h (NS) | Stem Cells Initial Fraction: 3.5 × 10^−3 (0.001) | increase in HSC number (after only 4 days of culture): 10 fold | RS, rate of symmetric self-renewal, of HSC divisions (increase from undetectable, p=0.037): 0.32%

O=NN(CCCl)C(=O)NCCCl [BCNU, bis-chloroethylnitrosourea]
Committed Progenitor Cells CC Time: 6.4 h (NS) | Stem Cells Asym CC Time: 7.6 (NS) h | Stem Cells SSR Rate, RS: 0.0 (NS) | Stem Cells Sym CC Time: 8.2 h (NS) | Stem Cells Initial Fraction: 1.3 × 10^−4 (0.001) | change in determined HSC number (within the first four days of culture): decrease
